Data: the supplement of paper PMC10307832

Columns and labels:
Assay in all cases: relative viability (nuclei count vs DMSO), 5 days (fraction); higher = more cells survive
EHT 1864 + Alpelisib = compound: C1COCCN1CC2=CC(=O)C(=CO2)OCCCCCSC3=C4C=CC(=CC4=NC=C3)C(F)(F)F [EHT 1864] + Cc1nc(NC(=O)N2CCC[C@H]2C(N)=O)sc1-c1ccnc(C(C)(C)C(F)(F)F)c1 [Alpelisib] (partner 2 µM)
Method in brief: (§1)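 One day after seeding in 1536-well plates, lung cancer cell lines were dosed by pin tool. Dosing was either single-drug or a fixed anchor-drug dose plus five library-drug doses (not always all listed) in √10 steps. After 5 days, nuclei were stained in one fix-and-stain step and counted on 4× images, and relative viability is the nuclei count of treated wells over that of vehicle wells, given as the median of duplicate plates.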

EHT 1864 + Dasatinib = compound: C1COCCN1CC2=CC(=O)C(=CO2)OCCCCCSC3=C4C=CC(=CC4=NC=C3)C(F)(F)F [EHT 1864] + Cc1nc(Nc2ncc(C(=O)Nc3c(C)cccc3Cl)s2)cc(N2CCN(CCO)CC2)n1 [Dasatinib] (partner 0.075 µM)
Method in brief: as §1

EHT 1864 + Tozasertib = compound: C1COCCN1CC2=CC(=O)C(=CO2)OCCCCCSC3=C4C=CC(=CC4=NC=C3)C(F)(F)F [EHT 1864] + Cc1cc(Nc2cc(N3CCN(C)CC3)nc(Sc3ccc(NC(=O)C4CC4)cc3)n2)n[nH]1 [Tozasertib] (partner 0.1 µM)
Method in brief: as §1

EHT 1864 + Luminespib = compound: C1COCCN1CC2=CC(=O)C(=CO2)OCCCCCSC3=C4C=CC(=CC4=NC=C3)C(F)(F)F [EHT 1864] + CCNC(=O)c1noc(-c2cc(C(C)C)c(O)cc2O)c1-c1ccc(CN2CCOCC2)cc1 [Luminespib] (partner 0.01 µM)
Method in brief: as §1

| Cell Line | relative viability (EHT 1864 + Alpelisib; first compound 0.04 µM) | relative viability (EHT 1864 + Alpelisib; first compound 0.1265 µM) | relative viability (EHT 1864 + Alpelisib; first compound 0.4 µM) | relative viability (EHT 1864 + Alpelisib; first compound 1.265 µM) | relative viability (EHT 1864 + Alpelisib; first compound 4 µM) | relative viability (EHT 1864 + Dasatinib; first compound 0.04 µM) | relative viability (EHT 1864 + Dasatinib; first compound 0.1265 µM) | relative viability (EHT 1864 + Dasatinib; first compound 0.4 µM) | relative viability (EHT 1864 + Dasatinib; first compound 1.265 µM) | relative viability (EHT 1864 + Dasatinib; first compound 4 µM) | relative viability (EHT 1864 + Tozasertib; first compound 0.04 µM) | relative viability (EHT 1864 + Tozasertib; first compound 0.1265 µM) | relative viability (EHT 1864 + Tozasertib; first compound 0.4 µM) | relative viability (EHT 1864 + Tozasertib; first compound 1.265 µM) | relative viability (EHT 1864 + Tozasertib; first compound 4 µM) | relative viability (EHT 1864 + Luminespib; first compound 0.04 µM) | relative viability (EHT 1864 + Luminespib; first compound 0.1265 µM) | relative viability (EHT 1864 + Luminespib; first compound 0.4 µM) | relative viability (EHT 1864 + Luminespib; first compound 1.265 µM) | relative viability (EHT 1864 + Luminespib; first compound 4 µM) |
| --- | --- | --- | --- | --- | --- | --- | --- | --- | --- | --- | --- | --- | --- | --- | --- | --- | --- | --- | --- | --- |
| HCC-827 | 0.981 | 0.887 | 0.958 | 0.953 | 0.891 | 0.358 | 0.328 | 0.268 | 0.248 | 0.269 | 0.415 | 0.348 | 0.408 | 0.449 | 0.4 | 0.517 | 0.427 | 0.465 | 0.487 | 0.588 |
| HOP-62 | 1.03 | – | 0.838 | 0.796 | 0.884 | 0.561 | – | 0.74 | 0.589 | 0.84 | 0.391 | – | 0.376 | 0.333 | 0.374 | 0.932 | – | 0.765 | 0.798 | 0.982 |
| IA-LM | 0.875 | 0.419 | 0.799 | 0.677 | 0.639 | – | – | – | – | – | – | – | – | – | – | – | – | – | – | – |
| LC-2-ad | 0.837 | – | 0.831 | 0.9 | 0.82 | 0.65 | – | 0.617 | 0.54 | 0.659 | 0.483 | – | 0.516 | 0.391 | 0.487 | 1.12 | – | 0.912 | 1 | 0.951 |
| LCLC-97TM1 | 0.253 | – | 0.22 | 0.195 | 0.198 | 0.888 | 0.748 | 0.828 | 0.727 | 0.8 | 0.289 | 0.196 | 0.181 | 0.19 | 0.227 | 0.701 | 0.517 | 0.772 | 0.718 | 0.784 |
| LCLC-103H | 1.05 | 0.888 | 0.956 | 1.03 | 1.07 | 0.409 | 0.399 | 0.373 | 0.431 | 0.505 | 0.455 | 0.305 | 0.543 | 0.441 | 0.475 | 0.874 | 0.798 | 0.932 | 0.975 | 0.919 |
| LK-2 | 1.19 | 0.972 | 1.07 | 1.14 | 0.499 | 0.36 | – | 0.353 | 0.246 | 0.257 | 0.162 | – | 0.169 | 0.198 | 0.164 | 0.167 | – | 0.224 | 0.178 | 0.177 |
| LOU-NH91 | 0.739 | 0.7 | 0.793 | 0.736 | 0.624 | 0.543 | 0.5 | 0.56 | 0.628 | 0.486 | 0.614 | 0.551 | 0.67 | 0.609 | 0.69 | 0.345 | 0.345 | 0.342 | 0.294 | 0.32 |
| LU99A | 0.495 | 0.381 | 0.452 | 0.583 | 0.54 | 0.482 | 0.413 | 0.613 | 0.564 | 0.436 | 0.295 | 0.254 | 0.253 | 0.244 | 0.216 | 0.186 | 0.242 | 0.229 | 0.215 | 0.233 |
| LXF-289 | 1.1 | 1 | 1 | 0.968 | 0.912 | 0.237 | 0.239 | 0.253 | 0.171 | 0.207 | 0.201 | 0.144 | 0.196 | 0.209 | 0.203 | 0.739 | 0.544 | 0.689 | 0.657 | 0.647 |
| NCI-H23 | 0.664 | – | 0.781 | 0.738 | 0.807 | 0.741 | 0.536 | 0.522 | 0.481 | 0.779 | 0.397 | 0.372 | 0.373 | 0.291 | 0.367 | 0.194 | – | 0.242 | 0.193 | 0.204 |
| NCI-H322M | 0.763 | 0.747 | 0.821 | 0.81 | 0.959 | 0.256 | 0.24 | 0.283 | 0.23 | 0.234 | 0.477 | 0.457 | 0.448 | 0.461 | 0.51 | 0.877 | 0.859 | 0.955 | 0.529 | 1.06 |
| NCI-H358 | 0.798 | – | 0.877 | 0.965 | 0.837 | 0.215 | 0.145 | 0.17 | 0.174 | 0.186 | 0.113 | 0.128 | 0.104 | 0.102 | 0.0985 | 0.302 | 0.398 | 0.313 | 0.469 | 0.414 |
| NCI-H522 | – | – | – | – | – | 0.919 | 0.724 | 1.04 | 0.812 | 0.875 | 0.583 | 0.471 | 0.561 | 0.503 | 0.541 | 1.18 | – | 1.23 | 1.06 | 1.22 |
| NCI-H1563 | 0.853 | 1.03 | 1.04 | 0.96 | 0.805 | 0.437 | 0.466 | 0.469 | 0.43 | 0.489 | – | – | – | – | – | 0.497 | 0.503 | 0.556 | 0.54 | 0.553 |
| NCI-H1648 | – | – | – | – | – | – | – | – | – | – | 0.486 | 0.376 | 0.396 | 0.411 | 0.441 | – | – | – | – | – |
| NCI-H1650 | – | – | – | – | – | – | – | 0.36 | 0.271 | 0.377 | – | – | 0.385 | 0.355 | 0.242 | – | – | 0.203 | 0.201 | 0.198 |
| NCI-H1703 | 0.323 | 0.319 | 0.399 | 0.373 | 0.366 | – | – | – | – | – | – | – | – | – | – | – | – | – | – | – |
| NCI-H1792 | 0.664 | 0.584 | 0.627 | 0.72 | 0.792 | 0.755 | 0.778 | 0.714 | 0.73 | 0.894 | – | – | – | – | – | 0.393 | – | 0.376 | 0.361 | 0.533 |
| NCI-H2342 | – | – | – | – | – | 0.317 | 0.307 | 0.315 | 0.309 | 0.306 | 0.541 | 0.394 | 0.452 | 0.491 | 0.533 | 0.669 | 0.651 | 0.744 | 0.702 | 0.759 |
| SW 900 | – | – | – | – | – | 0.809 | – | 0.684 | 1.02 | 0.552 | 0.531 | – | 0.49 | 0.577 | 0.481 | 0.177 | – | 0.181 | 0.177 | 0.145 |
